Tests used:
wild type IKZF3 = wild type IKZF3 (Homo sapiens, UniProt Q96SW2+Q9UKT9); assay: GFP degradation assay (plate reader), WT; format: cell-based; details: background autofluorescence subtracted
Protocol: (§1) Jurkat cells were added to 96 well U-bottom assay plates (Falcon) at 1×10^5 cells per well and treated with compounds for 18 hours at 37° C. and 5% CO2. Cells were stained with 1 μg/mL DAPI (ThermoFisher) and acquired on a Cytoflex S (Beckman Coulter). Data was analysed using FlowJo 10.8.1 (BD).
(§2) The compounds were assessed in GFP degradation assays as described above. (Data shown in FIG. 19 was obtained using a plate reader leading to a degree of background autofluorescence). The data in FIG. 19 indicates the inflection point—at which range of concentrations the degradation occurs—for each compound. DC50 and selectivity values (following subtraction of background autofluorescence) were acquired. Compound C01 degrades both wild type IKZF3 and WEIS mutant (Q147W N149E Q150I).

[1] = target: WEIS mutant (Q147W N149E Q150I) (Homo sapiens, UniProt Q96SW2+Q9UKT9, N149E/Q147W/Q150I); assay: GFP degradation assay (plate reader), WEIS; format: cell-based; details: background autofluorescence subtracted
WEIS mutant (Q147W N149E Q150I), sequence (Q9UKT9 130-189 Q147W/N149E/Q150I): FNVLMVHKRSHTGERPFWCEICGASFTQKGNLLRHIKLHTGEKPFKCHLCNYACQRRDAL
WEIS mutant (Q147W N149E Q150I), sequence (Q96SW2 whole entry): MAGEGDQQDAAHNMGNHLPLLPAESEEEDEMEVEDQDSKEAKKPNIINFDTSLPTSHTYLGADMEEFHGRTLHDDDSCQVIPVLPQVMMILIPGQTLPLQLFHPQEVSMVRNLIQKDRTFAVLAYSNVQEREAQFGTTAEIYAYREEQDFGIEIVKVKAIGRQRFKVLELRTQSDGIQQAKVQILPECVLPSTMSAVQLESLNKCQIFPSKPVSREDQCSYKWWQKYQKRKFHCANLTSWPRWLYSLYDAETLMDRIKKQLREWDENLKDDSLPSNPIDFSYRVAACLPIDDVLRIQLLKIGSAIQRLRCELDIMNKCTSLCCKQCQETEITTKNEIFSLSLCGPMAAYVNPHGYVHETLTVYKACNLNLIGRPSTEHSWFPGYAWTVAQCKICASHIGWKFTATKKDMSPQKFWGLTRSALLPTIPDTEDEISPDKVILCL
Protocol: as §1, §2

[2] = test system: library of 8,380 IKZF3 degrons (ZF-eGFP/mCherry reporter) in Jurkat cells; assay: Pooled library screen (FACS, NGS, limma voom LogFC of positive vs negative read counts); format: cell-based, human; details: WT ZF sequence
Protocol: A library of 8,380 IKZF3 degrons was cloned into pLVX-Sprout to create the eGFP/mCherry protein degradation reporter plasmid pool. A lentivirus pool was then generated using the Lenti-X lentiviral vector production method.
Jurkat cells were transduced at a multiplicity of infection of <0.3 with the lentivirus vector library in order to maximise the number of cells with a single integration. Transductions were carried out in 6 well TC-treated cell culture dishes (Falcon) with 3×10^6 cells per well. Cells were incubated for 2 days at 37° C. and 5% CO2 before the supernatant was removed and replaced with fresh media. 6 days post-transduction, mCherry+ cells were isolated via FACS using the FACS Aria Fusion (BD) in a buffer containing PBS (Gibco), 2 mM EDTA (Gibco), 25 mM HEPES (Sigma) and 1% BSA (Sigma). 8 days later, cells were treated with DMSO or a thalidomide analog for 18 hours at 37° C. and 5% CO2. mCherry+GFPlow and NOT(mCherry+GFPlow) cells were sorted by FACS using the FACS Aria Fusion (BD). DMSO treated cells were used to set the mCherry+GFPlow gate and dead cells were excluded from sorting by staining cells with 1 μg/mL DAPI (ThermoFisher). gDNA was isolated using the Maxwell RSC 48 (Promega). gDNA from cells that were unsorted and untreated were also isolated to determine the library representation on the day of compound treatment. Throughout the screen >600× coverage of the library was maintained. 3 biological replicates were carried out with a new transduction taking place each time.
A two-step PCR was used where the first PCR (PCR1) amplified the integrated degron sequence from gDNA and the second PCR (PCR2) added Illumina adaptors and barcodes to permit multiplexing. See Supp F for PCR1 and PCR2 primers. Q5 Hot Start High-Fidelity 2× Master Mix (New England Biolabs) was used for both PCRs. Sufficient gDNA was amplified in PCR1 in order to maintain >600× coverage and amplicons were purified using solid phase reversible immobilization (SPRI) beads (Beckman Coulter). Purified PCR1 products were analysed on the Tapestation 4200 (Agilent) to confirm purity prior to proceeding to PCR2. Sufficient PCR1 product was amplified in PCR2 in order to maintain >600× coverage and amplicons were run on a 2% agarose TAE gel. Target bands were excised and purified using the NucleoSpin Gel and PCR Clean-up Kit (Machery Nagel). Amplicons were analysed on the Tapestation 4200 and quantified using Qubit dsDNA HS kit (ThermoFisher). PCR products were pooled and sequenced as paired-reads on the NovaSeq (Illumina) using a SP2 200 cycles kit (Illumina).
Count distributions, percentage of read mapping, library coverage and replicate correlation per sample were assessed for QC purposes.
To carry out the library screen, we used the same plasmid construct as in our earlier flow cytometry assays, but pooling all 8,380 mutants together into one Jurkat population, ensuring a copy number of one plasmid per cell (FIG. 4B). […] These GFP-negative cells were then separated from the remaining GFP-positive population using fluorescence activated cell sorting (FACS). These two populations were then sequenced and the relative abundance of every mutant in both populations compared to provide a log FC value for each mutant sequence. This value indicated how frequently a sequence is observed in the GFP-negative population relative to the GFP-positive population, and therefore how effective a degron it is for that particular IMID compound.

wild type IKZF3, sequence (Q9UKT9 130-189): as the sequence (Q9UKT9 130-189 Q147W/N149E/Q150I) above, with W18Q, E20N, I21Q counted along it
wild type IKZF3, sequence (Q96SW2 whole entry): as the sequence (Q96SW2 whole entry) above

Row | SMILES | degradation of wild type IKZF3 (wild type IKZF3) | degradation of WEIS mutant [1] | position of the WT sequence in the volcano plot of the library screen [2]
1 | CN1CCN(c2ccc3c(c2)CN(C2CCC(=O)NC2=O)C3=O)CC1 (stereo not drawn) [C01] | degrades | degrades | 
2 | O=C1CCC(N2C(=O)c3ccccc3C2=O)C(=O)N1 (stereo not drawn) [thalidomide, reference compound] |  |  | close to the ‘hits’ region

— patent US20260284208A1, “SYSTEM” (Oxford University Innovation Limited, priority 2023, published 2026)
